In patent US6673749B1, “Use of phyllocladane diterpenoids for plant growth promotion and alleviation of growth retardant allelochemicals, and method therefor” (Council of Scientific and Industrial Research, priority 2002, dated 2004):

Columns and labels:
Assay type in all cases: in vivo
[1] = test system: Hordeum vulgare; test: Seed germination and seedling shoot/root growth test in petridishes; conditions: control = 100%
Method: (§1) As noted above the activity of phyllocladane diterpenoids used in the practice of this invention was observed when these compounds were tested for their effects on seed germination, root and shoot growth of certain plant species and their antagonistic effect on plant growth retardants by the method described by Bagchi G. D. et al Phytochemistry, 45(6)1131-1133, 1997.
(§2) Plant growth promoting activity of calliterpenone, calliterpenone monoacetate, and calliterpenone di-acetate was examined at 0.1, 0.01 and 0.001 μM concentrations. The tests were conducted against seeds of two monocotyledonous (Hordeum vulgare and Triticum aestivum) and two dicotyledonous plants (Vigna radiata and Trigonella foenum-graecum). Control seeds were germinated in distilled water and all the observations were compared with […]. The root and shoot growth of all the plant species were affected by the phyllocladane diterpenoids, although the extent of effect varied considerably in the plant species with the chemicals and their concentrations. […] Details of the procedure adopted and results obtained are discussed in the various examples.
(§3) 100 ml stalk solutions of 0.1 μM concentration were prepared by dissolving required amounts of various test compounds (depending upon their molecular weights) in minimum amount of ethanol or acetone and adding distilled water. From this stalk solution, 0.01 μM and 0.001 μM concentrations were prepared. Calliterpenone and calliterpenone di acetate was dissolved in 2.0 ml absolute ethanol (Merc), while; calliterpenone monoacetate, isopropylideno calliterpenone and trihydroxy calliterpenone were dissolved in 2.0 ml spectral grade acetone (Ranbaxy). The respective control test solutions of distilled water of each concentration also contained equal amount of absolute ethanol or acetone. For an assay, 10 seeds were placed on Whatman filter paper (moistened with 5.0 ml of test solution in a 9.0 cm diameter petridish (in triplicate). The pteridishes were incubated for 9 days in a germinator, maintained at 25.0±1.0° C. with 90% humidity and 4 hr light/day. At the end of incubation, observations were recorded on the seedlings in terms of germination, shoot and root growth. The data on the length of shoot and root of seedlings and number of seeds germinated in different concentrations of compounds were compared with the control, which was taken as 100%. The data thus obtained were presented in Table-1.
(§4) Root growth of seedlings was measured in the similar way as shoot growth from the experiment as described in Example 1.
(§5) Effect of test compounds on germination was observed from the same experiment as described in Example 1.

[2] = test system: Trigonella foenum-graecum; test: as above; conditions: for Percent (%) germination of seeds in relation to control on 9th day after sowing / Percent (%) root growth of seedlings in relation to control on 9th day after sowing / Percent (%) shoot growth of seedlings in relation to control on 9th day after sowing: Trigonella foenum graecum, control = 100%
Method: as §1, §2, §3, §4, §5

[3] = test system: Triticum aestivum; test: as above; conditions: control = 100%
Method: as §1, §2, §3, §4, §5

[4] = test system: Vigna radiata; test: as above; conditions: for Percent (%) germination of seeds in relation to control on 9th day after sowing / Percent (%) root growth of seedlings in relation to control on 9th day after sowing / Percent (%) shoot growth of seedlings in relation to control on 9th day after sowing: Vigna radiata, control = 100%
Method: as §1, §2, §3, §4, §5

[5] = test system: Hibiscus sabdariffa; test: Seed germination and seedling growth, comparison with GA3 (Example 4)
Method: as §3
(§6) Effect of calliterpenone and its derivatives on seed germination and seedling growth in Hibiscus sabdariffa and Sesbania cannabina were measured in the similar way as these were measured in Example-1.

[6] = test system: Sesbania cannabina; test: as above
Method: as §3, §6

Question: Which results are given for C=C1C[C@]23C[C@@]1(O)CC[C@H]2[C@@]12C=C[C@H](O)[C@@](C)(C(=O)O1)[C@H]2[C@@H]3C(=O)O [GA3, Gibberellic acid, reference compound]?
Answer: Percent (%) germination of seeds in relation to control on 9th day after sowing ([1]; 0.001 μM): 100%; Percent (%) root growth of seedlings in relation to control on 9th day after sowing ([1]; 0.001 μM): 132%; Percent (%) shoot growth of seedlings in relation to control on 9th day after sowing ([1]; 0.001 μM): 104%; Percent (%) germination of seeds in relation to control on 9th day after sowing ([1]; 0.01 μM): 100%; Percent (%) root growth of seedlings in relation to control on 9th day after sowing ([1]; 0.01 μM): 115%; Percent (%) shoot growth of seedlings in relation to control on 9th day after sowing ([1]; 0.01 μM): 91%; Percent (%) germination of seeds in relation to control on 9th day after sowing ([1]; 0.1 μM): 100%; Percent (%) root growth of seedlings in relation to control on 9th day after sowing ([1]; 0.1 μM): 70%; Percent (%) shoot growth of seedlings in relation to control on 9th day after sowing ([1]; 0.1 μM): 55%; Percent (%) germination of seeds in relation to control on 9th day after sowing ([2]; 0.001 μM): 100%; Percent (%) root growth of seedlings in relation to control on 9th day after sowing ([2]; 0.001 μM): 123%; Percent (%) shoot growth of seedlings in relation to control on 9th day after sowing ([2]; 0.001 μM): 116%; Percent (%) germination of seeds in relation to control on 9th day after sowing ([2]; 0.01 μM): 100%; Percent (%) root growth of seedlings in relation to control on 9th day after sowing ([2]; 0.01 μM): 45%; Percent (%) shoot growth of seedlings in relation to control on 9th day after sowing ([2]; 0.01 μM): 112%; Percent (%) germination of seeds in relation to control on 9th day after sowing ([2]; 0.1 μM): 100%; Percent (%) root growth of seedlings in relation to control on 9th day after sowing ([2]; 0.1 μM): 45%; Percent (%) shoot growth of seedlings in relation to control on 9th day after sowing ([2]; 0.1 μM): 93%; Seed germination as compared to 100% in control ([2]; Trigonella foenum-graceum, concentration not specified): 100%; Percent (%) germination of seeds in relation to control on 9th day after sowing ([3]; 0.001 μM): 100%; Percent (%) root growth of seedlings in relation to control on 9th day after sowing ([3]; 0.001 μM): 131%; Percent (%) shoot growth of seedlings in relation to control on 9th day after sowing ([3]; 0.001 μM): 120%; Percent (%) germination of seeds in relation to control on 9th day after sowing ([3]; 0.01 μM): 100%; Percent (%) root growth of seedlings in relation to control on 9th day after sowing ([3]; 0.01 μM): 116%; Percent (%) shoot growth of seedlings in relation to control on 9th day after sowing ([3]; 0.01 μM): 115%; Percent (%) germination of seeds in relation to control on 9th day after sowing ([3]; 0.1 μM): 100%; Percent (%) root growth of seedlings in relation to control on 9th day after sowing ([3]; 0.1 μM): 62%; Percent (%) shoot growth of seedlings in relation to control on 9th day after sowing ([3]; 0.1 μM): 113%; Seed germination as compared to 100% in control ([4]; V.radiata, concentration not specified): 200%; Percent (%) germination of seeds in relation to control on 9th day after sowing ([4]; 0.001 μM): 200%; Percent (%) root growth of seedlings in relation to control on 9th day after sowing ([4]; 0.001 μM): 102%; Percent (%) shoot growth of seedlings in relation to control on 9th day after sowing ([4]; 0.001 μM): 126%; Percent (%) germination of seeds in relation to control on 9th day after sowing ([4]; 0.01 μM): 200%; Percent (%) root growth of seedlings in relation to control on 9th day after sowing ([4]; 0.01 μM): 103%; Percent (%) shoot growth of seedlings in relation to control on 9th day after sowing ([4]; 0.01 μM): 196%; Percent (%) germination of seeds in relation to control on 9th day after sowing ([4]; 0.1 μM): 200%; Percent (%) root growth of seedlings in relation to control on 9th day after sowing ([4]; 0.1 μM): 104%; Percent (%) shoot growth of seedlings in relation to control on 9th day after sowing ([4]; 0.1 μM): 183%; Seed Ger. ([5]; 0.001 μM): 3; Root Growth (mm) 3rd Day ([5]; 0.001 μM): 21.5 mm; Shoot growth 3rd Day ([5]; 0.001 μM): 47.6; Root Growth (mm) 6th Day ([5]; 0.001 μM): 22.8 mm; Shoot growth 6th Day ([5]; 0.001 μM): 76.3; Root Growth (mm) 9th Day ([5]; 0.001 μM): 25.0 mm; Shoot growth 9th Day ([5]; 0.001 μM): 85.8; Seed Ger. ([5]; 0.01 μM): 3; Root Growth (mm) 3rd Day ([5]; 0.01 μM): 15.8 mm; Shoot growth 3rd Day ([5]; 0.01 μM): 39.6; Root Growth (mm) 6th Day ([5]; 0.01 μM): 16.6 mm; Shoot growth 6th Day ([5]; 0.01 μM): 76.5; Root Growth (mm) 9th Day ([5]; 0.01 μM): 16.6 mm; Shoot growth 9th Day ([5]; 0.01 μM): 76.5; Seed Ger. ([5]; 0.1 μM): 2; Root Growth (mm) 3rd Day ([5]; 0.1 μM): 15.3 mm; Shoot growth 3rd Day ([5]; 0.1 μM): 46.8; Root Growth (mm) 6th Day ([5]; 0.1 μM): 29.3 mm; Shoot growth 6th Day ([5]; 0.1 μM): 76.6; Root Growth (mm) 9th Day ([5]; 0.1 μM): 32.0 mm; Shoot growth 9th Day ([5]; 0.1 μM): 81.6; Seed Ger. ([6]; 0.001 μM): 1; Root Growth (mm) 3rd Day ([6]; 0.001 μM): 35.5 mm; Shoot growth 3rd Day ([6]; 0.001 μM): 31.0; Root Growth (mm) 6th Day ([6]; 0.001 μM): 34.0 mm; Shoot growth 6th Day ([6]; 0.001 μM): 85.6; Root Growth (mm) 9th Day ([6]; 0.001 μM): 40.0 mm; Shoot growth 9th Day ([6]; 0.001 μM): 103.6; Seed Ger. ([6]; 0.01 μM): 2; Root Growth (mm) 3rd Day ([6]; 0.01 μM): 23.5 mm; Shoot growth 3rd Day ([6]; 0.01 μM): 27.0; Root Growth (mm) 6th Day ([6]; 0.01 μM): 25.5 mm; Shoot growth 6th Day ([6]; 0.01 μM): 66.8; Root Growth (mm) 9th Day ([6]; 0.01 μM): 27.8 mm; Shoot growth 9th Day ([6]; 0.01 μM): 67.0; Seed Ger. ([6]; 0.1 μM): 1; Root Growth (mm) 3rd Day ([6]; 0.1 μM): 16.5 mm; Shoot growth 3rd Day ([6]; 0.1 μM): 32.5; Root Growth (mm) 6th Day ([6]; 0.1 μM): 16.6 mm; Shoot growth 6th Day ([6]; 0.1 μM): 42.3; Root Growth (mm) 9th Day ([6]; 0.1 μM): 26.6 mm; Shoot growth 9th Day ([6]; 0.1 μM): 61.3
